In PubChem BioAssay AID268 (DTP/NCI, 2004) one finds T/C data, which are given here for 17 compounds.

For this assay, the system named is CD2F1 mice, P1798 lymphosarcoma sc, tumor weight T/C. As to the kind of experiment: NCI In Vivo Anticancer Drug Screen. Data for tumor model P1798 Lymphosarcoma (subcutaneous) in CD2F1 (CDF1) mice. The note with it: endpoint: mean tumor weight, higher = larger tumour. How it is done: The antitumor activity of compounds was measured in mice bearing transplantable tumors. Survival or tumor size were measured and the results are expressed as the measurement made in the treated group (T) divided by the measurement made in the vehicle treated control group (C). The tumor model used in this assay is P1798 Lymphosarcoma (subcutaneous) in CD2F1 (CDF1) mice

Setting [1] is: dose: 12.5 mg/kg/injection, schedule: Q01DX005 (sc), vehicle: steriod suspending solution.
Setting [2] is: dose: 25.0 mg/kg/injection, schedule: Q01DX005 (sc), vehicle: steriod suspending solution.
[3] abbreviates: dose: 25.0 mg/kg/injection, schedule: Q01DX010 (sc), vehicle: steriod suspending solution.
Where [4] appears, read: dose: 50.0 mg/kg/injection, schedule: Q01DX005 (sc), vehicle: steriod suspending solution.
The mark [5] stands for this setting: dose: 100.0 mg/kg/injection, schedule: Q01DX005 (sc), vehicle: steriod suspending solution.
Where [6] appears, read: dose: 6.25 mg/kg/injection, schedule: Q01DX010 (sc), vehicle: steriod suspending solution.
The mark [7] stands for this setting: dose: 100.0 mg/kg/injection, schedule: Q01DX010 (sc), vehicle: steriod suspending solution.
Where [8] appears, read: dose: 40.0 mg/kg/injection, schedule: Q01DX010 (ip), vehicle: saline.
Setting [9] is: dose: 60.0 mg/kg/injection, schedule: Q01DX010 (ip), vehicle: saline.
[10] abbreviates: dose: 10.0 mg/kg/injection, schedule: Q01DX010 (ip), vehicle: saline.
Where [11] appears, read: dose: 20.0 mg/kg/injection, schedule: Q01DX010 (ip), vehicle: saline.
Where [12] appears, read: dose: 80.0 mg/kg/injection, schedule: Q01DX010 (ip), vehicle: saline.
Where [13] appears, read: dose: 50.0 mg/kg/injection, schedule: Q01DX010 (ip), vehicle: saline.
The mark [14] stands for this setting: dose: 100.0 mg/kg/injection, schedule: Q01DX010 (ip), vehicle: saline.
[15] abbreviates: dose: 200.0 mg/kg/injection, schedule: Q01DX010 (ip), vehicle: saline.
The mark [16] stands for this setting: dose: 400.0 mg/kg/injection, schedule: Q01DX010 (ip), vehicle: saline.
[17] abbreviates: dose: 12.5 mg/kg/injection, schedule: Q01DX010 (ip), vehicle: saline.
[18] abbreviates: dose: 25.0 mg/kg/injection, schedule: Q01DX010 (ip), vehicle: saline.

Molecules are shown by their SMILES. Where “and” joins values, the source holds several entries; their conditions need not be identical. Equal values may be shown once.

Usually T/C stands for the result in the treated group divided by that in the control group, in per cent. On to `C[C@]12C[C@H](O)[C@H]3[C@@H](CCC4=CC(=O)CC[C@@]43C)[C@@H]1CC[C@@H]2C(=O)CO`, for which the T/C was 88 % of control under setting [1]; 97 % of control under setting [2]; 91 % of control and 69 % of control under setting [3]; 91 % of control (dose: 25.0 mg/kg/injection, schedule: Q03DX004 (sc), vehicle: steriod suspending solution); 63 % of control under setting [4]; 91 % of control (dose: 50.0 mg/kg/injection, schedule: Q02DX010 (sc), vehicle: steriod suspending solution). Moreover, the T/C by setting is: (dose: 50.0 mg/kg/injection, schedule: Q03DX004 (sc), vehicle: steriod suspending solution) 56 % of control; (dose: 75.0 mg/kg/injection, schedule: Q01DX010 (sc), vehicle: steriod suspending solution) 105 % of control; (dose: 75.0 mg/kg/injection, schedule: Q02DX010 (sc), vehicle: steriod suspending solution) 101 % of control; under setting [5], 32 % of control; (dose: 100.0 mg/kg/injection, schedule: Q02DX010 (sc), vehicle: steriod suspending solution) 101 % of control; (dose: 100.0 mg/kg/injection, schedule: Q03DX004 (sc), vehicle: steriod suspending solution) 33 % of control.
In the case of `CC(=O)OCC(=O)[C@@]1(O)CC[C@H]2[C@@H]3CCC4=CC(=O)[C@H](C)C[C@]4(C)[C@@]3(F)[C@@H](O)C[C@@]21C`, the T/C (dose: 3.75 mg/kg/injection, schedule: Q01DX Z (sc), vehicle: steriod suspending solution) was 94 % of control; the T/C under setting [6] is 111 % of control; the T/C (dose: 6.25 mg/kg/injection, schedule: Q02DX010 (sc), vehicle: steriod suspending solution) was 94 % of control; the T/C (dose: 7.5 mg/kg/injection, schedule: Q01DX Z (sc), vehicle: steriod suspending solution) is 111 % of control; the T/C under setting [1] was 38 % of control; the T/C (dose: 12.5 mg/kg/injection, schedule: Q02DX010 (sc), vehicle: steriod suspending solution) was 101 % of control. Besides, the T/C runs as follows: (dose: 15.0 mg/kg/injection, schedule: Q01DX Z (sc), vehicle: steriod suspending solution) 74 % of control; under setting [2], 5 % of control; under setting [3], 1 % of control and 2 % of control and 26 % of control; (dose: 25.0 mg/kg/injection, schedule: Q02DX010 (sc), vehicle: steriod suspending solution) 89 % of control; (dose: 30.0 mg/kg/injection, schedule: Q01DX Z (sc), vehicle: steriod suspending solution) 74 % of control; under setting [4], 2 % of control. Moreover, the T/C runs as follows: (dose: 60.0 mg/kg/injection, schedule: Q01DX Z (sc), vehicle: steriod suspending solution) 88 % of control; under setting [5], 1 % of control.
Consider `Cc1cc(C(C)(C)C)ccc1O`, for which the T/C (dose: 6.2 mg/kg/injection, schedule: Q01DX011 (ip), vehicle: carboxymethylcellulose (CMC)) is 47 % of control; the T/C (dose: 12.5 mg/kg/injection, schedule: Q01DX011 (ip), vehicle: carboxymethylcellulose (CMC)) was 105 % of control; the T/C (dose: 25.0 mg/kg/injection, schedule: Q01DX011 (ip), vehicle: carboxymethylcellulose (CMC)) is 106 % of control.
As for `C[C@]12CC[C@@H]3c4ccccc4CC[C@H]3[C@@H]1CC[C@@H]2O`, the T/C reads like this: under setting [7], 94 % of control; (dose: 200.0 mg/kg/injection, schedule: Q01DX010 (sc), vehicle: steriod suspending solution) 74 % of control; (dose: 400.0 mg/kg/injection, schedule: Q01DX010 (sc), vehicle: steriod suspending solution) 33 % of control; (dose: 800.0 mg/kg/injection, schedule: Q01DX010 (sc), vehicle: steriod suspending solution) 7 % of control.
In the case of `C[C@H]1C[C@@H]2[C@H]([C@@H](O)C[C@@]3(C)[C@H]2CC[C@]3(O)C(=O)CO)[C@@]2(C)C=CC(=O)C=C12`, the T/C (dose: 50.0 mg/kg/injection, schedule: Q01DX010 (sc), vehicle: steriod suspending solution) is 7 % of control.
For `CN(N=O)C(=O)NC(C=O)C(O)C(O)C(O)CO` (centres undefined), the T/C by setting is: (dose: 22.5 mg/kg/injection, schedule: Q01DX010 (ip), vehicle: saline) 43 % of control; under setting [8], 97 % of control; (dose: 45.0 mg/kg/injection, schedule: Q01DX010 (ip), vehicle: saline) 53 % of control; under setting [9], 64 % of control; (dose: 90.0 mg/kg/injection, schedule: Q01DX010 (ip), vehicle: saline) 24 % of control and 29 % of control.
Turning to `OCC1OC(n2cnc3c(=S)nc[nH]c32)C(O)C1O` (centres undefined), the T/C by setting is: under setting [10], 65 % of control; under setting [11], 54 % of control and 57 % of control; under setting [8], 57 % of control and 61 % of control; under setting [12], 40 % of control and 60 % of control; (dose: 160.0 mg/kg/injection, schedule: Q01DX010 (ip), vehicle: saline) 61 % of control.
`CC/C(=C(/CC)c1ccc(O)cc1)c1ccc(O)cc1`: the T/C reads like this: under setting [6], 91 % of control and 96 % of control; under setting [7], 22 % of control and 45 % of control.
On to `Nc1nc(=O)n(C2CC(O)C(CO)O2)cc1Br` (centres undefined), for which the T/C was 81 % of control under setting [13]; 65 % of control under setting [14]; 39 % of control under setting [15]; 29 % of control under setting [16]; 7 % of control (dose: 800.0 mg/kg/injection, schedule: Q01DX010 (ip), vehicle: saline).
`NCCCC(N)C(=O)NCCCCCCNCCCCCCNC(=O)C(N)CCCN` (centres undefined): the T/C is, setting by setting: under setting [17], 86 % of control; under setting [18], 62 % of control; under setting [13], 77 % of control; under setting [14], 34 % of control.
On to `O=C(NCCCCCCNC(=O)OCc1ccccc1)OCc1ccccc1`, for which the T/C was 102 % of control under setting [13], 119 % of control under setting [14], 94 % of control under setting [15] and 123 % of control under setting [16].
Consider `CC1CC(C)OS(=O)O1` (centres undefined), for which the T/C was 70 % of control (dose: 44.0 mg/kg/injection, schedule: Q01DX010 (ip), vehicle: saline) and 30 % of control (dose: 66.0 mg/kg/injection, schedule: Q01DX010 (ip), vehicle: saline).
Consider `CN(C)CCCN1c2ccccc2Sc2ccc(C(F)(F)F)cc21`, for which the T/C is 55 % of control under setting [17] and 19 % of control under setting [18].
For `O=C1NC2C(NC(=O)N2Cl)N1Cl` (centres undefined), the T/C runs as follows: under setting [11], 80 % of control; under setting [8], 90 % of control; under setting [12], 76 % of control.
On to `Nc1ccn(C2OC(CO)C(O)C2O)c(=O)n1` (centres undefined), for which the T/C by setting is: under setting [10], 12 % of control; (dose: 18.0 mg/kg/injection, schedule: Q01DX010 (ip), vehicle: saline) 31 % of control; under setting [11], 10 % of control; (dose: 27.0 mg/kg/injection, schedule: Q01DX010 (ip), vehicle: saline) 12 % of control; under setting [8], 4 % of control and 6 % of control; under setting [9], 1 % of control.
Take `CC(=O)Nc1ccc(/C=N/Nc2ccc([N+](=O)[O-])cn2)cc1`: the T/C is 66 % of control (dose: 62.5 mg/kg/injection, schedule: Q01DX010 (ip), vehicle: saline); 75 % of control (dose: 125.0 mg/kg/injection, schedule: Q01DX010 (ip), vehicle: saline); 16 % of control (dose: 250.0 mg/kg/injection, schedule: Q01DX010 (ip), vehicle: saline).
In the case of `N#Cc1ccc(S(N)(=O)=O)cc1`, the T/C was 70 % of control (dose: 22.0 mg/kg/injection, schedule: Q01DX010 (ip), vehicle: saline); 54 % of control (dose: 33.0 mg/kg/injection, schedule: Q01DX010 (ip), vehicle: saline); 67 % of control (dose: 49.0 mg/kg/injection, schedule: Q01DX010 (ip), vehicle: saline); 35 % of control (dose: 73.0 mg/kg/injection, schedule: Q01DX010 (ip), vehicle: saline).
